Source: US20040220221A1, “Treatment of degenerative diseases” (priority 2002, published 2004)

Tested on: experimentally induced osteoarthritis
Assay: experimentally induced osteoarthritis in guinea pigs (partial medial meniscectomy), joint histology
Type: in vivo, Dunkin Hartley guinea pigs
Conditions: 1, 3 and 10 mg/kg/day orally by gavage, 10 weeks, operated right hind leg joint, blinded pathologist
Method: The following description gives evidence on which the invention is based.
Dunkin Hartley guinea pigs(apart from the blank control) were anaesthetised and underwent partial medial meniscectomy in the right hind leg. 3 doses of +mefloquine, (1 mg/kg/day, 3 mg/kg/day and 10 mg/kg/day) were administered orally by gavage to groups of 10 animals as well as a vehicle control. The vehicle was 0.2% methylcellulose and 0.4% Tween 80 in bidistilled water for the mefloquine groups. The administration volume was 2 mL/kg.
The animals were followed for 10 weeks. Terminal blood samples were taken for drug levels. Histology was performed on the joint, which was operated on, and an assessment of the cartilage structure, cell proliferation and loss of proteoglycans was made. The histology was performed by a blinded pathologist.

O[C@H](c1cc(C(F)(F)F)nc2c(C(F)(F)F)cccc12)[C@@H]1CCCCN1 [+mefloquine, (+)-erythro-mefloquine]
degeneration of cartilage (histology: cartilage structure, cell proliferation, loss of proteoglycans): prevents the degeneration of cartilage
